Experimental data: paper PMC10502144, “Anti-methicillin-resistant Staphylococcus aureus activity and safety evaluation of 14-O-[(5-ethoxycarbonyl-4,6-dimethylpyrimidine-2-yl) thioacetyl] mutilin (EDT)” (Scientific Reports, 2023)

Key:
female Wistar rats = test: Acute oral toxicity test (OECD423); type: in vivo; details: for Absolute organ weight, Heart / Absolute organ weight, Kidneys / Absolute organ weight, Liver / Absolute organ weight, Lungs / Absolute organ weight, Ovaries / Absolute organ weight, Spleen / Absolute organ weight, Uterus: 2000 mg/kg oral single dose; for Relative organ weight, Kidneys: organ/b.w. × 100
Description: Adult specific pathogen free (SPF) female Wistar rats (4–6 weeks old) were purchased from Lanzhou Veterinary Research Institute, Chinese Academy of Agricultural Sciences. Animals were kept in clean stainless steel cages (3 rats per cage), free access to food and water and maintained under the 23 °C conditions with a constant 12 h light–dark cycle. Animals were acclimatized for at least 7 days before the experiment. […] The animal study was carried out in compliance with the ARRIVE guidelines.
Acute toxicity tests of EDT were performed according to OECD423 bulletin[23]. This method can measure drug roughly LD50 with fewer experimental animals. […] Six animals were randomly separated into one treatment group (n = 3) and control group (n = 3). Rats in treatment group were orally administered with a single dose of 2000 mg/kg of EDT dissolved in vehicle (corn oil: DMSO = 4:1) in a volume of 10 mL/kg body weight (b.w.) by gavage. Animals in the control group only received 10 mL/kg vehicle. […] After first round treatment, observations were focused on mortality, behavioural symptoms and changes in skin, eyes and fur. Individual body weight was recorded at the starting of protocol and at the end of protocol. […] On the 14th day, all the surviving animals were euthanized with ketamine hydrochloride 70 mg/kg (i.p.) and their hearts, livers, spleens, lungs, kidneys, uterus and ovaries were individually observed for overt pathology and removed for relative weight calculation (organ/b.w. × 100).

[1] = tested on: Salmonella Typhimurium TA98; test: Ames test, TA98
Description: Before the test, Salmonella Typhimurium (S. Typhimurium) TA97a, TA98, TA100, TA102, TA1535 and Escherichia coli WP2uvrA pKM101 (pKM101) were first checked for their genetic integrity, including biotin dependence, rfa marker (crystal violet), biotin, histidine dependence and presence of the plasmid pKM101 (ampicillin resistance) or pAQ1 (tetracycline resistance). […] The maximum concentration of EDT was also screened using a preliminary experiment.
DMSO (0.1 mL) was directly incorporated into 1.9 mL melted top agar as the vehicle control. […] Each strain (0.1 mL, 6–7 log10 CFU/mL) was added into 2 mL of top agar in which comprised 0.5 mL S9 (10%), serial concentrations of EDT (2000, 400, 80, 16 and 3.2 μg/plate), DMSO or control chemicals for testing with the S9. For testing without S9, 0.5 mL phosphate buffer saline (PBS, pH 7.4) replaced the S9 mix. Then, the obtained top agar was melted, poured onto the surface of […] and swirled to distribute the top agar to all surfaces of medium, followed by incubation at 37 °C for 48 h. The resultant colonies were counted manually as the number of revertant colonies per plate. The experiments were performed in triplicate and the results were expressed as the average ± SD.

[2] = Microsomal stability assay, human; type: in vitro ADME; details: human liver microsomes
Description: Mouse and human liver microsomes were thawed slowly on ice. A total of 5 mg/mL of microsomes, 2 μL of a 100 μM solution of EDT and 183 μL of 100 mM phosphate buffer were incubated 5 min at 37 °C in a water bath. Reactions were initiated using 10 μL of 20 mM NADPH. Samples were incubated in three replicates at 37 °C under gentle agitation at 150 rpm. At 0, 5, 15, 30, and 60 min, reactions were terminated by the addition of 180 μL of acetonitrile. After centrifugation (4000 rpm, 10 min), samples were then analyzed by liquid chromatography/tandem mass spectrometry (LC–MS/MS). Peak areas of the respective time point of the compound were normalized to the peak area at time point 0 min. Then half-life was calculated using linear regression from log percentage (t1/2 = − 0.693/k).

Question: Which LD50 (female Wistar rats; female Wistar rats, single oral dose, OECD Guidelines 423) does the source give for `C=CC1(C)CC(OC(=O)CSc2nc(C)c(C(=O)OCC)c(C)n2)C2(C)C(C)CCC3(CCC(=O)C32)C(C)C1O` (stereo not shown) [EDT, 14-O-[(5-ethoxycarbonyl-4,6-dimethylpyrimidine-2-yl)thioacetyl] mutilin] here?
Answer: more than 2000 mg/kg body weight

Question: What about the “Absolute organ weight, Heart” value (female Wistar rats; first round treatment, day 14) of the same compound?
Answer: 0.71 ± 0.06 g

Question: What about the “Absolute organ weight, Kidneys” value (female Wistar rats; first round treatment, day 14) of the same compound?
Answer: 1.11 ± 0.01 g

Question: What about the “Absolute organ weight, Liver” value (female Wistar rats; first round treatment, day 14) of the same compound?
Answer: 9.66 ± 0.17 g

Question: What about the “Absolute organ weight, Lungs” value (female Wistar rats; first round treatment, day 14) of the same compound?
Answer: 1.38 ± 0.03 g

Question: What about the “Absolute organ weight, Ovaries” value (female Wistar rats; first round treatment, day 14) of the same compound?
Answer: 0.06 ± 0.00 g

Question: And the “Absolute organ weight, Spleen” value (female Wistar rats; first round treatment, day 14)?
Answer: 0.70 ± 0.03 g

Question: What about the “Absolute organ weight, Uterus” value (female Wistar rats; first round treatment, day 14) of the same compound?
Answer: 0.45 ± 0.02 g

Question: And the “Relative organ weight, Kidneys” value (female Wistar rats; first round treatment)?
Answer: 0.52 ± 0.01%

Question: What about the “Relative organ weight, Ovaries” value (female Wistar rats; rat, in vivo) of the same compound?
Answer: 0.03 ± 0.00%

Question: And the “Relative organ weight, Spleen” value (female Wistar rats; rat, in vivo)?
Answer: 0.33 ± 0.01%

Question: What about the mortality (female Wistar rats; rat, in vivo, po, 2000 mg/kg) of the same compound?
Answer: no mortality

Question: What about the “Absolute organ weight, Heart” value (female Wistar rats; second round treatment, day 14) of the same compound?
Answer: 0.75 ± 0.03 g

Question: What about the “Absolute organ weight, Kidneys” value (female Wistar rats; second round treatment, day 14) of the same compound?
Answer: 1.11 ± 0.03 g

Question: And the “Absolute organ weight, Liver” value (female Wistar rats; second round treatment, day 14)?
Answer: 9.69 ± 0.06 g

Question: And the “Absolute organ weight, Lungs” value (female Wistar rats; second round treatment, day 14)?
Answer: 1.40 ± 0.05 g

Question: What about the “Absolute organ weight, Ovaries” value (female Wistar rats; second round treatment, day 14) of the same compound?
Answer: 0.06 ± 0.00 g

Question: And the “Absolute organ weight, Spleen” value (female Wistar rats; second round treatment, day 14)?
Answer: 0.71 ± 0.03 g

Question: And the “Absolute organ weight, Uterus” value (female Wistar rats; second round treatment, day 14)?
Answer: 0.43 ± 0.03 g

Question: And the “Relative organ weight, Kidneys” value (female Wistar rats; second round treatment)?
Answer: 0.52 ± 0.01%

Question: What about the “body weight compared to the control group” value (female Wistar rats; single oral 2000 mg/kg, 14 days) of the same compound?
Answer: did not produce alterations in body weight

Question: And the macroscopic necropsy examination (female Wistar rats; single oral 2000 mg/kg, day 14)?
Answer: no gross pathological lesions

Question: What about the “number of revertant colonies per plate” value ([1]; TA98, 3.2 μg/plate, +S9) of the same compound?
Answer: 22.00 ± 2.00

Question: What about the “number of revertant colonies per plate” value ([1]; TA98, 3.2 μg/plate, −S9) of the same compound?
Answer: 21.67 ± 1.67

Question: And the “number of revertant colonies per plate” value ([1]; TA98, 16 μg/plate, +S9)?
Answer: 24.00 ± 4.00

Question: What about the “number of revertant colonies per plate” value ([1]; TA98, 16 μg/plate, −S9) of the same compound?
Answer: 23.33 ± 2.67

Question: And the “number of revertant colonies per plate” value ([1]; TA98, 80 μg/plate, +S9)?
Answer: 19.00 ± 3.00

Question: What about the “number of revertant colonies per plate” value ([1]; TA98, 80 μg/plate, −S9) of the same compound?
Answer: 23.33 ± 2.67

Question: What about the “number of revertant colonies per plate” value ([1]; TA98, 400 μg/plate, +S9) of the same compound?
Answer: 25.00 ± 4.00

Question: What about the “number of revertant colonies per plate” value ([1]; TA98, 400 μg/plate, −S9) of the same compound?
Answer: 26.67 ± 3.33

Question: What about the “number of revertant colonies per plate” value ([1]; TA98, 2000 μg/plate, +S9) of the same compound?
Answer: 29.67 ± 2.33

Question: What about the “number of revertant colonies per plate” value ([1]; TA98, 2000 μg/plate, −S9) of the same compound?
Answer: 32.33 ± 3.67

Question: What about the half-life at 1 μM [2] of the same compound?
Answer: 43.6 min

Question: And the microsomal CLint at 1 μM [2]?
Answer: 31.8 µL/min/mg
